PubChem BioAssay (NCI)
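Test compounds were applied to cells in 96-well plates for 48 hours at 5 doses. Abbreviation: GI50, concentration required for 50% inhibition of growth. At the TGI there is no net growth.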

Legend:
Assay in all cases: growth of human tumour cells (NCI), 48 h
[1] = system: MDA-MB-435
[2] = system: OVCAR-3 ovarian
[3] = system: MCF7 breast
[4] = system: TK-10 renal
[5] = system: MDA-MB-231 breast
[6] = system: SNB-75 CNS
[7] = system: HOP-92 NSCLC
[8] = system: CCRF-CEM leukemia
[9] = system: ACHN renal
[10] = system: SR leukemia
[11] = system: K-562 leukemia
[12] = system: COLO 205 colon
[13] = system: RXF 393 renal
[14] = system: SF-268 CNS
[15] = system: A549 NSCLC
[16] = system: HS 578T breast
[17] = system: T-47D breast
[18] = system: NCI/ADR-RES ovarian
[19] = system: SK-MEL-28 melanoma
[20] = system: UACC-62 melanoma
[21] = system: OVCAR-5 ovarian
[22] = system: EKVX NSCLC
[23] = system: OVCAR-8 ovarian
[24] = system: SNB-19 CNS
[25] = system: M14 melanoma
[26] = system: 786-0 renal
[27] = system: HCT-15 colon
[28] = system: SN12C renal
[29] = system: HOP-62 NSCLC
[30] = system: LOX IMVI melanoma
[31] = system: KM12 colon
[32] = system: HCC-2998 colon
[33] = system: UO-31 renal
[34] = system: HT29 colon
[35] = system: U251 CNS
[36] = system: A498 renal
[37] = system: UACC-257 melanoma
[38] = system: SK-MEL-5 melanoma
[39] = system: HCT-116 colon
[40] = system: IGROV1 ovarian
[41] = system: SF-539 CNS
[42] = system: NCI-H23 lung
[43] = system: PC-3 prostate
[44] = system: OVCAR-4 ovarian
[45] = system: CAKI-1 renal
[46] = system: SW-620 colon
[47] = system: NCI-H522 lung
[48] = system: BT-549 breast
[49] = system: SK-OV-3 ovarian
[50] = system: SF-295 CNS
[51] = system: SK-MEL-2 melanoma
[52] = system: RPMI-8226 leukemia
[53] = system: MOLT-4 leukemia
[54] = system: DU-145 prostate
[55] = system: NCI-H226 lung
[56] = system: NCI-H460 lung
[57] = system: HL-60(TB) leukemia

O=c1nc(Oc2c(F)c(F)c(F)c(F)c2F)ccn1C1OC(CO)C(O)C1O (configuration not stated)
TGI [1]: > 100 µM | TGI [2]: > 100 µM | TGI [3]: > 100 µM | TGI [4]: > 100 µM | TGI [5]: > 100 µM | TGI [6]: > 100 µM | TGI [7]: > 100 µM | TGI [8]: > 100 µM | TGI [9]: > 100 µM | TGI [10]: > 100 µM | TGI [11]: > 100 µM | TGI [12]: > 100 µM | TGI [13]: > 100 µM | TGI [14]: > 100 µM | TGI [15]: > 100 µM | TGI [16]: > 100 µM | TGI [17]: > 100 µM | TGI [18]: > 100 µM | TGI [19]: > 100 µM | TGI [20]: > 100 µM | TGI [21]: > 100 µM | TGI [22]: > 100 µM | TGI [23]: > 100 µM | TGI [24]: > 100 µM | TGI [25]: > 100 µM | TGI [26]: > 100 µM | TGI [27]: > 100 µM | TGI [28]: > 100 µM | TGI [29]: > 100 µM | TGI [30]: > 100 µM | TGI [31]: > 100 µM | TGI [32]: > 100 µM | TGI [33]: > 100 µM | TGI [34]: > 100 µM | TGI [35]: > 100 µM | TGI [36]: > 100 µM | TGI [37]: > 100 µM | TGI [38]: > 100 µM | TGI [39]: > 100 µM | TGI [40]: > 100 µM | TGI [41]: > 100 µM | TGI [42]: > 100 µM | TGI [43]: > 100 µM | TGI [44]: > 100 µM | TGI [45]: > 100 µM | TGI [46]: > 100 µM | TGI [47]: > 100 µM | TGI [48]: > 100 µM | TGI [49]: > 100 µM | TGI [50]: > 100 µM | TGI [51]: > 100 µM | TGI [52]: > 100 µM | TGI [53]: > 100 µM | TGI [54]: > 100 µM

Cc1cccc(NC(=O)c2sc3nc4c(cc3c2N)CCCC4)c1
GI50 [1]: 0.305 µM | TGI [1]: 2 µM | GI50 [2]: 4.84 µM | TGI [2]: > 100 µM | GI50 [3]: 1.15 µM | TGI [3]: > 100 µM | GI50 [55]: 9.68 µM | TGI [55]: 73.5 µM | GI50 [4]: 13.7 µM | TGI [4]: 90.6 µM | GI50 [5]: 14.8 µM | TGI [5]: 52.2 µM | GI50 [6]: 3.84 µM | TGI [6]: 18.9 µM | GI50 [7]: 9 µM | TGI [7]: 32 µM | GI50 [8]: 4.46 µM | TGI [8]: > 100 µM | GI50 [9]: 10.5 µM | TGI [9]: > 100 µM | GI50 [10]: 0.549 µM | TGI [10]: 11.2 µM | GI50 [12]: 4.96 µM | TGI [12]: > 100 µM | GI50 [13]: 4.71 µM | TGI [13]: 23.2 µM | GI50 [56]: 5.25 µM | TGI [56]: > 100 µM | GI50 [14]: 10.7 µM | TGI [14]: > 100 µM | GI50 [15]: 8.33 µM | TGI [15]: > 100 µM | GI50 [16]: 9.92 µM | TGI [16]: > 100 µM | GI50 [17]: 10.2 µM | TGI [17]: > 100 µM | GI50 [18]: 4.59 µM | TGI [18]: > 100 µM | GI50 [19]: 9.23 µM | TGI [19]: > 100 µM | GI50 [20]: 2.19 µM | TGI [20]: > 100 µM | GI50 [21]: > 100 µM | TGI [21]: > 100 µM | GI50 [23]: 20.9 µM | TGI [23]: > 100 µM | GI50 [24]: 6.92 µM | TGI [24]: 68 µM | GI50 [25]: 2 µM | TGI [25]: > 100 µM | GI50 [26]: 4.13 µM | TGI [26]: 32.4 µM | GI50 [27]: 0.845 µM | TGI [27]: > 100 µM | GI50 [28]: 24 µM | TGI [28]: > 100 µM | GI50 [57]: 2.36 µM | TGI [57]: 17.7 µM | GI50 [29]: 4.97 µM | TGI [29]: 36.8 µM | GI50 [30]: 8.52 µM | TGI [30]: > 100 µM | GI50 [31]: 3.32 µM | TGI [31]: > 100 µM | GI50 [32]: 45.4 µM | TGI [32]: > 100 µM | GI50 [33]: 25.2 µM | TGI [33]: > 100 µM | GI50 [35]: 8.33 µM | TGI [35]: 45.2 µM | GI50 [36]: 5.87 µM | TGI [36]: 66.4 µM | GI50 [37]: > 100 µM | TGI [37]: > 100 µM | GI50 [38]: 2.3 µM | TGI [38]: 47.3 µM | GI50 [39]: 2.59 µM | TGI [39]: > 100 µM | GI50 [40]: 17.7 µM | TGI [40]: > 100 µM | GI50 [41]: 4.74 µM | TGI [41]: 60.5 µM | GI50 [42]: 27.8 µM | TGI [42]: > 100 µM | GI50 [43]: 16.2 µM | TGI [43]: > 100 µM | GI50 [44]: 3.22 µM | TGI [44]: 39.1 µM | GI50 [45]: 6.7 µM | TGI [45]: > 100 µM | GI50 [46]: 3.42 µM | TGI [46]: > 100 µM | GI50 [47]: 16.4 µM | TGI [47]: > 100 µM | GI50 [48]: 7.56 µM | TGI [48]: 62 µM | GI50 [49]: 12.9 µM | TGI [49]: 63.9 µM | GI50 [50]: 3.51 µM | TGI [50]: 23.8 µM | GI50 [51]: 8.99 µM | TGI [51]: 52.5 µM | GI50 [52]: 5.74 µM | TGI [52]: > 100 µM | GI50 [53]: 12 µM | TGI [53]: > 100 µM | GI50 [54]: 13.4 µM | TGI [54]: > 100 µM
